From patent publication US7384949B2, “Thieno(3,2-d)pyrimidines and furano(3,2-d)pyrimidines and their use as purinergic receptor antagonists” (Vernalis Research Limited, priority 2001, dated 2008)

| SMILES | melting point |
| --- | --- |
| CCc1nc(-c2ncc(-c3ccccc3)o2)c2sccc2n1 [Example 106, 2-ethyl-4-(5-phenyl-2-oxazolyl)thieno[3,2-d]pyrimidine] | 170 to 170.5 °C |
| Cc1ccc(-c2nc(Cl)nc3ccsc23)nc1 [Example 109, 2-chloro-4-(5-methyl-2-pyridyl)thieno[3,2-d]pyrimidine] | 221 to 222 °C |
| CC(=O)Nc1nc(-c2nccs2)c2sccc2n1 [Example 116, N-(4-(2-thiazolyl)thieno[3,2-d]pyrimidin-2-yl)acetamide] | 242.6 to 243.9 °C |
| CN(C)c1nc(-c2ccco2)c2scc(Br)c2n1 [Example 22, 7-bromo-N,N-dimethyl-4-(2-furyl)thieno[3,2-d]pyrimidine-2-amine] | 118.7 to 119.5 °C |
| Cc1nc(-c2nc(Cl)nc3ccsc23)sc1C [Example 103, 2-chloro-4-(4,5-dimethyl-2-thiazolyl)thieno[3,2-d]pyrimidine] | 240 to 241 °C |
| c1coc(-c2nc(Cc3cccs3)nc3ccsc23)c1 [Example 117, 4-(2-furyl)-2-(2-thienylmethyl)thieno[3,2-d]pyrimidine] | 149 °C |
| C[Si](C)(C)CCOCn1cc(-c2nc(Cl)nc3ccsc23)cn1 | 108 to 109 °C |
| CN(C)c1nc(-c2ccco2)c2scc(NC(=O)c3ccccc3)c2n1 [Example 57, N-(2-dimethylamino-4-(2-furyl)thieno[3,2-d]pyrimidine-7-yl)benzamide] | 192.2 to 192.8 °C |
| CCc1nc(-c2nncn2COCC[Si](C)(C)C)c2sccc2n1 | < 100 °C |
| OC[C@H]1CCCN1c1nc(-c2ccco2)c2scc(Br)c2n1 [Example 72, (2R)-7-bromo-4-(2-furyl)-2-(2-hydroxymethylpyrrolidin-1-yl)thieno[3,2-d]pyrimidine] | 75.4 to 76.3 °C |
| CN(C)c1nc(-c2cnn(COCC[Si](C)(C)C)c2)c2sccc2n1 | 60 to 61 °C |
| CC(=O)Nc1csc2c(-c3ccco3)nc(N(C)C)nc12 [Example 56, N-(2-dimethylamino-4-(2-furyl)thieno[3,2-d]pyrimidine-7-yl)acetamide] | 210.9 to 211.3 °C |
| Clc1nc(-c2ccccn2)c2sccc2n1 [Example 24, 2-chloro-4-(2-pyridyl)thieno[3,2-d]pyrimidine] | 209.2 to 209.5 °C |
| CCOC(=O)Cn1ccnc1-c1nc(N(C)C)nc2ccsc12 [Example 177, N,N-dimethyl-4-((1-ethoxycarbonylmethyl)-1H-imidazol-2-yl)thieno[3,2-d]pyrimidine-2-amine] | 209 to 210 °C |
| c1csc(-c2nc(-c3nccs3)c3sccc3n2)c1 [Example 153, 4-(2-thiazolyl)-2-(2-thienyl)thieno[3,2-d]pyrimidine] | 221.9 °C |
| CN(C)c1nc(-c2ccsc2)c2sccc2n1 [Example 157, N,N-dimethyl-4-(3-thienyl)thieno[3,2-d]pyrimidine-2-amine] | 119 to 119.4 °C |
| Clc1nc(-c2ccccc2)c2sccc2n1 [Example 158, 2-chloro-4-phenylthieno[3,2-d]pyrimidine] | 146.5 to 147.2 °C |
| Clc1nc(-c2ccsc2)c2sccc2n1 [Example 156, 2-chloro-4-(3-thienyl)thieno[3,2-d]pyrimidine] | 117.7 to 118.2 °C |
| O=[N+]([O-])c1cc2nc(Cl)nc(-c3ccco3)c2s1 [Example 162, 2-chloro-4-(2-furyl)-6-nitrothieno[3,2-d]pyrimidine] | 204 to 204.9 °C |
| Clc1nc(-c2cnccn2)c2sccc2n1 [Example 30, 2-chloro-4-(2-pyrazinyl)thieno[3,2-d]pyrimidine] | 183.2 to 183.8 °C |
| CN(C)c1nc(-c2ccco2)c2scc(N)c2n1 [Example 51, 7-amino-N,N-dimethyl-4-(2-furyl)thieno[3,2-d]pyrimidine-2-amine] | 145.8 to 146.5 °C |
| CN(C)c1nc(-c2cnn(C)c2)c2sccc2n1 [Example 186, N,N-dimethyl-4-(1-methyl-1H-pyrazol-4-yl)thieno[3,2-d]pyrimidine-2-amine] | 175.4 to 175.9 °C |
| CCc1nc(-c2ccco2)c2sc(C)cc2n1 [Example 188, 2-ethyl-4-(2-furyl)-6-methylthieno[3,2-d]pyrimidine] | 104.7 to 104.8 °C |
| CCSc1nc(-c2ccco2)c2sccc2n1 [Example 37, 2-ethylthio-4-(2-furyl)thieno[3,2-d]pyrimidine] | 207 to 208 °C |
| CCc1nc(-c2nncn2C)c2sccc2n1 [Example 187, 2-ethyl-4-(4-methyl-4H-1,2,4-triazol-3-yl)thieno[3,2-d]pyrimidine] | 110.2 to 111.4 °C |
| OC[C@H]1CCCN1c1nc(-c2ccco2)c2sccc2n1 [Example 38, (2R)-4-(2-furyl)-2-(2-hydroxymethylpyrrolidin-1-yl)thieno[3,2-d]pyrimidine] | 109 to 110 °C |
| CN(C)c1nc(-c2ccco2)c2scc(NC(=O)Nc3ccccc3)c2n1 [Example 55, N-(2-dimethylamino-4-(2-furyl)thieno[3,2-d]pyrimidine-7-yl)-N′-phenylurea] | 244.4 to 244.9 °C |

| SMILES | melting point |
| --- | --- |
| CCc1nc(-c2nccn2COC)c2sccc2n1 [Example 179, 2-ethyl-4-(1-methoxymethyl-1H-imidazol-2-yl)thieno[3,2-d]pyrimidine] | 69 to 70 °C |
| OCCNc1nc(-c2cc3ccccc3s2)c2sccc2n1 [Example 20, 4-(2-benzothiophenyl)-N-(2-hydroxyethyl)thieno[3,2-d]pyrimidine-2-amine] | 173.4 to 174.4 °C |
| Cn1nccc1-c1nc(Cl)nc2ccsc12 [Example 182, 2-chloro-4-(1-methyl-1H-pyrazol-5-yl)thieno[3,2-d]pyrimidine] | 141 to 142 °C |
| CC(=O)CC(=O)N(C)c1nc(-c2ccco2)c2sccc2n1 [Example 60, N-(4-(2-furyl)thieno[3,2-d]pyrimidine-2-yl)-N-methyl-3-oxobutanamide] | 108.3 to 108.6 °C |
| CN(C)c1nc(-c2nccn2COCC[Si](C)(C)C)c2sccc2n1 | 131 to 132 °C |
| FC(F)(F)c1nc(-c2ccco2)c2sccc2n1 [Example 11, 4-(2-furyl)-2-trifluoromethylthieno[3,2-d]pyrimidine] | 147.6 to 148.8 °C |
| OCCNc1nc(-c2cnccn2)c2sccc2n1 [Example 34, N-(2-hydroxyethyl)-4-(2-pyrazinyl)thieno[3,2-d]pyrimidine-2-amine] | 191.5 to 192.4 °C |
| CN(C)c1nc(-c2ccnn2C)c2sccc2n1 [Example 184, N,N-dimethyl-4-(1-methyl-1H-pyrazol-5-yl)thieno[3,2-d]pyrimidine-2-amine] | 126.5 to 127 °C |
| Cc1cnc(-c2nc(Cl)nc3ccsc23)s1 [Example 102, 2-chloro-4-(5-methyl-2-thiazolyl)thieno[3,2-d]pyrimidine] | 243 to 244 °C |
| CN(C)c1nc(-c2ccccc2)c2sccc2n1 [Example 159, N,N-dimethyl-4-phenylthieno[3,2-d]pyrimidine-2-amine] | 112.9 to 114.1 °C |
| Clc1nc(-c2ccco2)c2sccc2n1 [Example 3, 2-chloro-4-(2-furyl)thieno[3,2-d]pyrimidine] | 146.9 to 147.6 °C |
| COc1ccc(CNc2nc(-c3nccs3)c3sccc3n2)cc1OC [Example 108, N-(3,4-dimethoxybenzyl)-4-(2-thiazolyl)thieno[3,2-d]pyrimidine-2-amine] | 178.7 to 179.5 °C |
| CN(C)c1nc(-c2ccco2)c2scc([N+](=O)[O-])c2n1 [Example 44, N,N-dimethyl-4-(2-furyl)-7-nitrothieno[3,2-d]pyrimidine-2-amine] | 182.8 to 183.8 °C |
| CCc1nc(-c2nc(CC)nc3ccsc23)c2sccc2n1 [Example 119, 2-ethyl-4-(2-ethylthieno[3,2-d]pyrimidin-4-yl)thieno[3,2-d]pyrimidine] | 179 °C |
| Cc1csc2c(-c3ccco3)nc(Cl)nc12 [Example 12, 2-chloro-4-(2-furyl)-7-methylthieno[3,2-d]pyrimidine] | 164.4 to 164.9 °C |
| CCc1nc(-c2nc3ccccc3s2)c2sccc2n1 [Example 122, 4-(2-benzothiazolyl)-2-ethylthieno[3,2-d]pyrimidine] | 131 °C |
| Cc1csc2c(-c3ccco3)nc(NCCO)nc12 [Example 16, 4-(2-furyl)-N-(2-hydroxyethyl)-7-methylthieno[3,2-d]pyrimidine-2-amine] | 149.9 to 150.6 °C |
| NC(=O)c1nc(-c2ccco2)c2sccc2n1 [Example 155, 4-(2-furyl)thieno[3,2-d]pyrimidine-2-carboxamide] | 300 °C (dec.) |
| CN(C)c1nc(-c2nccn2CCO)c2sccc2n1 [Example 178, N,N-dimethyl-4-(1-(2-hydroxyethyl)-1H-imidazol-2-yl)thieno[3,2-d]pyrimidine-2-amine] | 162.2 to 164.9 °C |
| COc1ccc(CNc2nc(-c3ccco3)c3sccc3n2)cc1OC [Example 78, N-(3,4-dimethoxybenzyl)-4-(2-furyl)thieno[3,2-d]pyrimidine-2-amine] | 155 to 156 °C |
| CS(=O)(=O)Nc1csc2c(-c3ccco3)nc(Cl)nc12 [Example 59, N-(2-chloro-4-(2-furyl)thieno[3,2-d]pyrimidine-7-yl)methanesulphonamide] | 211.9 °C |
| Clc1nc(-c2cc3ccccc3s2)c2sccc2n1 [Example 17, 4-(2-benzothiophenyl)-2-chlorothieno[3,2-d]pyrimidine] | 231 to 231.6 °C |
| Clc1nc(-c2ccoc2)c2sccc2n1 [Example 160, 2-chloro-4-(3-furyl)thieno[3,2-d]pyrimidine] | 129.3 to 129.9 °C |
| OC[C@H]1CCCN1c1nc(-c2cccs2)c2sccc2n1 [Example 4, (2R)-2-(2-hydroxymethylpyrrolidin-1-yl)-4-(2-thienyl)thieno[3,2-d]pyrimidine] | 128.5 to 128.9 °C |
| CC(=O)Nc1nc(-c2ccco2)c2sccc2n1 [Example 101, N-(4-(2-furyl)thieno[3,2-d]pyrimidin-2-yl)acetamide] | 193.9 to 195 °C |
| C=CCNc1nc(-c2nccs2)c2sccc2n1 [Example 112, N-allyl-4-(2-thiazolyl)thieno[3,2-d]pyrimidine-2-amine] | 128 to 129 °C |
